The text below walks through data of PMC3621174, “A cell based high-throughput screening approach for the discovery of new inhibitors of respiratory syncytial virus” (Virology Journal, 2013).

Read-outs that look alike come from different tables or passages of the source.

The subject of one data set is RSV strain Long. Put plainly: Plaque reduction assay in HEp-2 cells. The data set is classed as cell-based, Human respiratory syncytial virus. The following applies: 25 μM test compound, MOI 0.1, HEp-2. The protocol: These compounds were evaluated for their ability to reduce the amount of infectious virus produced in cell culture. HEp-2 cells were infected with hRSV in the presence of 25 μM test compound. Media supernatants were removed and 10-fold serial-diluted onto a confluent field of uninfected, untreated HEp-2 cells, bound, washed, and overlaid with agarose. After six days, plaques were fixed, stained, and counted to determine the amount of infectious virus in the original, drugged supernatants (Figure 8).
Figure 8 Plaque reduction assay in HEp-2 cells. RSV strain Long was assayed for its sensitivity to five compounds. Supernatants were harvested from test (25 μM) or control compound (35 μM) treated RSV-infected HEp-2 cells at a multiplicity of infection (MOI) of 0.1. Serial dilutions of the supernatants were added to monolayers of HEp-2 cells in 24-well plates. Cells were fixed after 6 days and stained with neutral red. Plaque reduction assays were performed in triplicate per compound. CC, uninfected cell control; VC, untreated virus-infected control. The concentration of DMSO in each assay well, including all control wells was 0.5%.
Compounds or carrier control (DMSO) were diluted in Complete DMEM/F12 and 2 mL per well was dispensed to 6-well assay plates (final plate well concentration was 25 μM, ribavirin; 35 μM and final DMSO concentration 0.5%). […]
On the technique in general: Plaques are areas of infected cells; plaque reduction assays count them against a control.

Data set [1] concerns hRSV (strain Long). The data set is described as follows: 384-well CPE inhibition assay, hRSV-infected HEp-2 cells, Cell Titer Glo endpoint. The following applies: human respiratory syncytial virus, 144 h; HEp-2, virus MOI = 0.5, 8 point dose response 50-0.39 uM, 6 days, triplicate; read-out: EC50 (efficacy). The class given is cell-based. The procedure: (§1) Figure 3 Dose response of ribavirin. HEp-2 cells were plated in 384-well black tissue culture plates at 2,000 cells per well. Ribavirin or carrier control (DMSO) were diluted to 6x in Complete DMEM/F12 and serially diluted 1:2 resulting in an 8 point dose response dilution series. (final plate well concentration ranging from 50 uM to 0.39 uM and a final DMSO concentration of 0.5%). For dose response screening, cells were infected with a 1:500 dilution of virus (viral MOI = 0.5). The assay plates were incubated for six days at 37°C, 5% CO2 and 90% relative humidity and the inhibitory effects of the drug were assessed using Cell Titer Glo. […]
(§2) Following the six day incubation period, the assay plates were equilibrated to room temperature for 30 min. […] At the end of the incubation, luminescence was measured using a multi-label reader (Envision, PerkinElmer, Wellesley, MA) with an integration time of 0.1 s.
(§3) HTS data were analyzed using ActivityBase software (IDBS, Inc., Guildford, UK). Antiviral activity is described as percent CPE inhibition = 100*((luminescence compound well minus median luminescence virus control)/ (median luminescence cell control minus median luminescence virus control)). Percent viability = 100 * luminescence compound well/median luminescence cell control. […] Two dose-response curves were calculated for each substance. […] The selective index (SI) was calculated as SI = CC50/EC50. […]
Background: Cellular ATP, detected with luciferase, serves as a proxy for viable cell number.

Data set [2] can be described thus: Cytotoxicity dose response in HEp-2 cells (Cell Titer Glo). The class given is cell-based. As to conditions: human, HEp-2, 8 point dose response, duplicate. The procedure: as §1, §2, §3
For data set [3], the system named is hRSV (strain Long). Also noted: method as in PMID 14638398. As to conditions: previously reported value; cited from earlier work.

For the molecule `O=C(O)C1CC=CCC1C(=O)Nc1ccc(S(=O)(=O)N2CCCc3ccccc32)cc1` (centres unmarked) [SID 93616804], the “reduction in virus titer (pfu/mL) from control” value with RSV strain Long was 6.5 log.
With `COc1ccccc1CNC(=O)C1CCN(S(=O)(=O)c2cccc3nonc23)CC1` [compound 93616803], the “reduction in virus titer (pfu/mL) from control” value with RSV strain Long amounted to 4 log.
One may read the EC50 as the midpoint of the concentration-response curve. As a reminder, the CC50 is the concentration at which the toxic effect on the cells reaches its halfway point. Read a high CC50 as lower toxicity to the cells. Regarding `NC(=O)c1ncn([C@@H]2O[C@H](CO)[C@@H](O)[C@H]2O)n1` [ribavirin], the figures for the EC50 in the data set with hRSV (strain Long) [1] and in the data set with hRSV (strain Long) [3] were around 40 µM and 41 µM, respectively. The same molecule had a CC50 at 6 days in data set [2] of around 75 µM.
